From US20150175599A1, “FAAH Inhibitors” (Ironwood Pharmaceuticals, Inc., priority 2010, published 2015) come the findings set out here.

This assay concerns the target T1, human FAAH-1 (Homo sapiens, UniProt O00519).
T1 sequence (O00519 1-579): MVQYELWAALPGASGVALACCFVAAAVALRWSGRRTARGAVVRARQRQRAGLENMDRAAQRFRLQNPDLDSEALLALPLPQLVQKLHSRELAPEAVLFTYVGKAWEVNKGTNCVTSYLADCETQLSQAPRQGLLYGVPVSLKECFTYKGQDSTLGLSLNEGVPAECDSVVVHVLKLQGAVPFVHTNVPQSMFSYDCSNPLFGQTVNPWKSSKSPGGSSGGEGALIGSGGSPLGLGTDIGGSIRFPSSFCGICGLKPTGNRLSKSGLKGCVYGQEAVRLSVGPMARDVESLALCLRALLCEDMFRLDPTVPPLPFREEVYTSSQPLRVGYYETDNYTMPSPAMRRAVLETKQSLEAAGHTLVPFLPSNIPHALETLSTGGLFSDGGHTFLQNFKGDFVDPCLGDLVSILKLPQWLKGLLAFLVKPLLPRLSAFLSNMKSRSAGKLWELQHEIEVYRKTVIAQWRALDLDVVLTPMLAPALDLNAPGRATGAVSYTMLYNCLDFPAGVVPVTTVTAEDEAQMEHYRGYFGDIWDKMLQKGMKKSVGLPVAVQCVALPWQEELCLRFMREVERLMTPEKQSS
In words: Whole cell anandamide hydrolysis assay (HeLa clone 5c5 transfected with human FAAH-1). The format is cell-based. To be noted: HeLa clone 5c5 expressing human FAAH-1; read-out: human FAAH whole cell IC50. The procedure: FAAH activity was assayed in whole cells using methods disclosed previously (Maccarone et al., 1998 J Biol. Chem. 273:32332 and Bisogno et al., 1997 J Biol. Chem. 272:3315). In addition to the cell lines described in Maccarone et al. and Bisogno et al., MCF7 (ATCC designation HTB-22) and T84 (ATCC designation CCL-248) cell lines were also used in these assays.
cDNA expression clone for human FAAH-1 (in pcDNA3 vector) (Genbank Accession U82535; obtained from Benjamin Cravatt, Scripps Research Institute, La Jolla, Calif.) was linearized by digestion with BglII (New England Biolabs) and transfected by calcium phosphate into human HeLa cells (ATCC catalog #CCL-2). […] Following transfection, a stable HeLa-derived clone, designated 5c5, was isolated by single colony purification and expanded and maintained in modified Eagles medium (MEM; VWR catalog #45000-300) containing 10% fetal bovine serum (FBS), 2 mM L-glutamine, and 0.5 mg/mL G-418 (Sigma catalog #G5013).
Clone 5c5 (50,000 cells in 150 μL) was seeded into 96-well plates and incubated overnight (5% CO2, 37° C.). Media was carefully replaced with 180 μL DMEM/F12 medium (VWR catalog #45000-350) containing 15 mM HEPES, pH 7.4 and 0.1% fatty acid free BSA (Sigma catalog #A0281). Then, 2 μL of 100× desired final concentrations of certain exemplary compounds described herein were made up in DMSO, added to wells containing cells, and plates were incubated at 37° C. for 10 min. Next, 20 μL of 5 μM anandamide (Cayman catalog #90050) spiked with 8 μCi of anandamide-(ethanolamine-1-[^3H]) (American Radiolabeled Chemicals, Inc., catalog #ART 626) was added to the cells and the plates were incubated for an additional 15 min at 37° C. The reactions were terminated by chilling the plates on ice and adding 20 μL of 0.5M of potassium phosphate buffer (adjusted to pH 2.1 with phosphoric acid).
The acidified reactions were transferred to 96-well filter plates (0.25 mL capacity/well, 1.2 micron glass fiber pre-filter packed above 0.65 micron pore-size PVDF membrane, Millipore catalog MSFCN6B50) containing 25 μL charcoal (neutral activated carbon, Fisher Scientific catalog C170-500) per well. Prior to the assay, charcoal was measured and loaded onto the plate using an aluminum 96-well column loading device (Millipore catalog MACL09625). The filter plate was assembled over an empty 96-well plate (Costar) using a centrifuge alignment frame (Millipore catalog MACF09604) to allow for collection of the filtrate in the receiver plate. The charcoal glass-fiber filter plates were pre-washed with methanol by centrifugation 650×g for 10 min). Next, 80 μL of water was added to the wells of the pre-washed 96 well charcoal filter plate. Then, 90 μL of the acidified reaction mixture was added to the water in the wells of the charcoal plate. The samples were centrifuged as above. The substrate remained bound to the charcoal, whereas the [^3H]-ethanolamine product formed flowed through and was transferred to the microplates containing scintillation cocktail and quantified in a micro-plate scintillation counter (Perkin-Elmer Microbeta). Control reactions with either no cells or cells treated with DMSO alone were performed in triplicate and used to define background (no cells) and 100% activity (DMSO alone).
Following subtraction of background radioactivity, data were expressed as percent inhibition relative to 100% activity and fit with a nonlinear regression curve using GraphPad Prism Software (GraphPad Software Inc). IC50 values were calculated from the resulting dose-response curves constrained at top and bottom to 100% and 0%, respectively.
One may read the IC50 as the concentration that gives 50% inhibition. Consider `COc1ccc2c(c1)c(C(=O)C(=O)Nc1ccnc(OC)c1)c(C)n2Cc1ccncc1` [Compound 16, 2-(5-methoxy-2-methyl-1-(pyridin-4-ylmethyl)-1H-indol-3-yl)-N-(2-methoxypyridin-4-yl)-2-oxoacetamide], for which the IC50 is less than 100 nM. The figure for `COc1cc(NC(=O)C(=O)c2c(C)n(Cc3ccc(Cl)cc3)c3ccc(N(C)C)cc23)ccn1` [Compound 17, 2-(1-(4-chlorobenzyl)-5-(dimethylamino)-2-methyl-1H-indol-3-yl)-N-(2-methoxypyridin-4-yl)-2-oxoacetamide] is less than 100 nM; for `COc1cc(NC(=O)C(=O)c2c(C)n(Cc3ccc(Cl)cc3)c3ccc(Br)cc23)ccn1` [Compound 18, 2-(5-bromo-1-(4-chlorobenzyl)-2-methyl-1H-indol-3-yl)-N-(2-methoxypyridin-4-yl)-2-oxoacetamide] it is less than 100 nM. Take `COc1cc(NC(=O)C(=O)c2c(C)n(Cc3ccc(Cl)cc3)c3ccc([N+](=O)[O-])cc23)ccn1` [Compound 19, 2-(1-(4-chlorobenzyl)-2-methyl-5-nitro-1H-indol-3-yl)-N-(2-methoxypyridin-4-yl)-2-oxoacetamide]: the IC50 is less than 100 nM. As for `COc1cc(NC(=O)C(=O)c2c(C)n(Cc3ccc(Cl)cc3)c3ccc(N)cc23)ccn1` [Compound 20, 2-(5-amino-1-(4-chlorobenzyl)-2-methyl-1H-indol-3-yl)-N-(2-methoxypyridin-4-yl)-2-oxoacetamide], the figure is less than 100 nM. In the case of `COc1cc(NC(=O)C(=O)c2c(C)n(Cc3ccc(Cl)cc3)c3ccc(C(F)(F)F)cc23)ccn1` [Compound 21, 2-(1-(4-chlorobenzyl)-2-methyl-5-(trifluoromethyl)-1H-indol-3-yl)-N-(2-methoxypyridin-4-yl)-2-oxoacetamide], the IC50 was less than 100 nM. As for `COc1cc(NC(=O)C(=O)c2c(C)n(Cc3ccc(Cl)cc3)c3ccc(NC(C)=O)cc23)ccn1` [Compound 22, 2-(5-acetamido-1-(4-chlorobenzyl)-2-methyl-1H-indol-3-yl)-N-(2-methoxypyridin-4-yl)-2-oxoacetamide], the figure is less than 100 nM; as for `COc1cc(NC(=O)C(=O)c2c(C)n(Cc3ccc(Cl)cc3)c3ccc(OC(F)(F)F)cc23)ccn1` [Compound 23, 2-(1-(4-chlorobenzyl)-2-methyl-5-(trifluoromethoxy)-1H-indol-3-yl)-N-(2-methoxypyridin-4-yl)-2-oxoacetamide], less than 100 nM; as for `CCN(CC)c1ccc2c(c1)c(C(=O)C(=O)Nc1ccnc(OC)c1)c(C)n2Cc1ccc(Cl)cc1` [Compound 24, 2-(1-(4-chlorobenzyl)-5-(diethylamino)-2-methyl-1H-indol-3-yl)-N-(2-methoxypyridin-4-yl)-2-oxoacetamide], 100 to 1000 nM.

Turning to `CNCc1ccc2c(c1)c(C(=O)C(=O)Nc1ccnc(OC)c1)c(C)n2Cc1ccc(Cl)cc1` [Compound 25, 2-(1-(4-chlorobenzyl)-2-methyl-5-((methylamino)methyl)-1H-indol-3-yl)-N-(2-methoxypyridin-4-yl)-2-oxoacetamide], the IC50 was in the range of 100 to 1000 nM. The figure for `COc1cc(NC(=O)C(=O)c2c(C)n(Cc3ccc(Cl)cc3)c3ccc(CN(C)C)cc23)ccn1` [Compound 26, 2-(1-(4-chlorobenzyl)-5-((dimethylamino)methyl)-2-methyl-1H-indol-3-yl)-N-(2-methoxypyridin-4-yl)-2-oxoacetamide] is less than 100 nM; for `C=Cc1ccc2c(c1)c(C(=O)C(=O)Nc1ccnc(OC)c1)c(C)n2Cc1ccc(Cl)cc1` [Compound 27, 2-(1-(4-chlorobenzyl)-2-methyl-5-vinyl-1H-indol-3-yl)-N-(2-methoxypyridin-4-yl)-2-oxoacetamide] it is less than 100 nM; for `COc1cnc2c(c1)c(C(=O)C(=O)Nc1ccnc(OC)c1)c(C)n2Cc1ncc(Cl)cc1Cl` [Compound 29, 2-(1-((3,5-dichloropyridin-2-yl)methyl)-5-methoxy-2-methyl-1H-pyrrolo[2,3-b]pyridin-3-yl)-N-(2-methoxypyridin-4-yl)-2-oxoacetamide] it is less than 100 nM. Turning to `COc1cc(NC(=O)C(=O)c2c(C)n(Cc3ncc(Cl)cc3Cl)c3ccc(C)cc23)ccn1` [Compound 30, 2-(1-((3,5-dichloropyridin-2-yl)methyl)-2,5-dimethyl-1H-indol-3-yl)-N-(2-methoxypyridin-4-yl)-2-oxoacetamide], the IC50 is less than 100 nM. The figure for `COc1cc(NC(=O)C(=O)c2c(C)n(Cc3ncc(Cl)cc3Cl)c3ccccc23)ccn1` [Compound 31, 2-(1-((3,5-dichloropyridin-2-yl)methyl)-2-methyl-1H-indol-3-yl)-N-(2-methoxypyridin-4-yl)-2-oxoacetamide] is less than 100 nM; for `COc1ccc(Cn2c(C)c(C(=O)C(=O)Nc3ccnc(OC)c3)c3cc(OC)c(F)cc32)nc1` [Compound 32, 2-(6-fluoro-5-methoxy-1-((5-methoxypyridin-2-yl)methyl)-2-methyl-1H-indol-3-yl)-N-(2-methoxypyridin-4-yl)-2-oxoacetamide] it is less than 100 nM; for `COc1cc(NC(=O)C(=O)c2c(C)n(Cc3ncc(Cl)cc3F)c3ccc(C)cc23)ccn1` [Compound 33, 2-(1-((5-chloro-3-fluoropyridin-2-yl)methyl)-2,5-dimethyl-1H-indol-3-yl)-N-(2-methoxypyridin-4-yl)-2-oxoacetamide] it is less than 100 nM.

As to `COc1cnc2c(c1)c(C(=O)C(=O)Nc1ccnc(OC)c1)c(C)n2Cc1ncc(Cl)cc1F` [Compound 34, 2-(1-((5-chloro-3-fluoropyridin-2-yl)methyl)-5-methoxy-2-methyl-1H-pyrrolo[2,3-b]pyridin-3-yl)-N-(2-methoxypyridin-4-yl)-2-oxoacetamide], the IC50 is less than 100 nM. For `COc1cc(NC(=O)C(=O)c2c(C)n(Cc3ccc(Cl)cc3)c3cnccc23)ccn1` [Compound 35, 2-(1-(4-chlorobenzyl)-2-methyl-1H-pyrrolo[2,3-c]pyridin-3-yl)-N-(2-methoxypyridin-4-yl)-2-oxoacetamide], the IC50 was less than 100 nM.

Consider `COc1cc(NC(=O)C(=O)c2c(C)n(Cc3ccc(Cl)cc3)c3ccc(OC)nc23)ccn1` [Compound 36, 2-(1-(4-chlorobenzyl)-5-methoxy-2-methyl-1H-pyrrolo[3,2-b]pyridin-3-yl)-N-(2-methoxypyridin-4-yl)-2-oxoacetamide], for which the IC50 was less than 100 nM.

Take `COc1cc(NC(=O)C(=O)c2c(C)n(Cc3ccc(Cl)cc3)c3ccncc23)ccn1` [Compound 37, 2-(1-(4-chlorobenzyl)-2-methyl-1H-pyrrolo[3,2-c]pyridin-3-yl)-N-(2-methoxypyridin-4-yl)-2-oxoacetamide]: the IC50 is less than 100 nM. As for `COc1cnc2c(c1)c(C(=O)C(=O)Nc1ccnc(OC)c1)c(C)n2Cc1ccc(Cl)cc1` [Compound 38, 2-(1-(4-chlorobenzyl)-5-methoxy-2-methyl-1H-pyrrolo[2,3-b]pyridin-3-yl)-N-(2-methoxypyridin-4-yl)-2-oxoacetamide], the figure is less than 100 nM.
